{"source": "patent US20020098211A1", "about": "“ANTIMICROBIAL AGENT AND USES THEREOF, IN PARTICULAR IN COSMETICS AND DERMATOLOGY” (priority 1998, published 2002)", "test_system": "Enterococcus faecalis (American Type Culture Collection No. 33186)", "experiment": "Antimicrobial (preservation) challenge test, count of surviving microorganisms in the inoculated product", "description": "Bacterium: Enterococcus faecalis (American Type Culture Collection No. 33186), cultured on soybean Trypticase Yeast: Candida albicans (American Type Culture Collection No. 10231), cultured on Sabouraud.\nInoculum preparation: tryptone-salt diluent\nCounting: Eugon LT100 agar broth\nOn the evening before the test, each microbial strain is plated out on the appropriate agar medium and incubated in an oven at 35° C.\nOn the day of the test, 20 grams of the product are weighed out in a sterile pill box. Inoculation is carried out at a concentration of 1% using a microbial suspension with a titre of 108 microorganisms per ml: a concentration of 106 is obtained in the product. The contaminated sample is incubated in an oven at 22° C.\nAfter incubation for 7 days, 1 gram of product is taken and tenfold dilutions are carried out in Eugon LT100 broth, and these dilutions are plated out on the surface of Petri dishes containing Eugon LT100 agar. The dishes are incubated at 35° C.\nThe colonies are counted on the dishes containing more than 20 and less than 200 colonies.", "data": [{"molecule": "CC(O)CCO", "note": "(stereo not shown) [Butanediol, butanediol]", "values": [{"measurement": "number of microorganisms per gram of preparation, remaining in the product after 7 days of contact", "setting": "Table 5, single agent at 3%", "value": "4.0 × 10^5 microorganisms per gram of preparation"}]}, {"molecule": "CCCC(O)CO", "note": "(stereo not shown) [pentanediol, 1,2-pentanediol]", "values": [{"measurement": "number of microorganisms per gram of preparation, remaining in the product after 7 days of contact", "setting": "Table 5, single agent at 3%", "value": "2.3 × 10^5 microorganisms per gram of preparation"}]}, {"molecule": "CCCCCCCC(=O)OC(C)C(=O)OC(C)C(=O)[O-].[Na+]", "note": "(stereo not shown) [Sodium capryl lactyl lactylate, sodium capryl lactyl lactylate]", "values": [{"measurement": "number of microorganisms per gram of preparation, remaining in the product after 7 days of contact", "setting": "Table 5, single agent at 1%", "value": "1.5 × 10^4 microorganisms per gram of preparation"}]}, {"molecule": "CCCCCCC(O)CO", "note": "(stereo not shown) [Octanediol, 1,2-octanediol]", "values": [{"measurement": "number of microorganisms per gram of preparation, remaining in the product after 7 days of contact", "setting": "Table 5, single agent at 0.25%", "value": "3.7 × 10^5 microorganisms per gram of preparation"}]}]}
